# Source: patent US20130217578A1, “Growth inhibition of perennial forage grasses with Pyroxsulam” (Dow AgroSciences LLC, priority 2010, published 2013)
# Tests used:
# Format in all cases: in vivo
# [1] = system: creeping red Fescue (FESRU, Festuca rubra); experiment: Field trial: percent growth inhibition of creeping red Fescue
# Experimental: (§1) Trials were conducted under field conditions in Canada. Trial sites were located in perennial forage grass areas. Forage grasses tested included: Bromegrass, Timothy Fescue and Wheatgrass species, including: meadow Bromegrass (BROCO, Bromus commutatus), smooth Brome grass (BROIN, Bromus inermus), Timothy (PHLPR, Phleum pretense), creeping red Fescue (FESRU, Festuca rubra), Tall Fescue (FESAR, Festuca arundinacea), and Western Wheatgrass (AGRSM, Agropyron smithii). The grasses were grown using normal cultural practices for fertilization, seeding, and maintenance to ensure good growth of the grasses. The trials were conducted using normal research methodology. Trial plots were between 2 to 5 meters (m) wide by 5 to 20 m long. All treatments were applied using a randomized complete block trial design with 3 or 4 replications per treatment. The trial sites had populations of homogeneous or heterogeneous perennial forage grass species present. Treatments consisted of pyroxsulam formulations (Simplicity® (trademark of Dow AgroSciences LLC for pyroxsulam+cloquintocet) or water-dispersible formulations of pyroxsulam) alone, or in tank mixes with Milestone® herbicide (trademark of Dow AgroSciences LLC for aminopyralid) or ClearView® herbicide (trademark of Dow AgroSciences LLC for aminopyralid+metsulfuron-methyl) with or without 2,4-D ester applied in water. Adjuvants were applied at 0.2% to 0.5% V/V. The application volumes were between 50 to 200 liters per hectare (L/ha). All application were made using precision gas hand sprayers or calibrated ATV sprayer using a 2 or 5 m boom using flat fan (80° or 110°) nozzles to broadcast the treatments post-emergent on the vegetation or soil.
# (§2) The treated plots and control plots were rated blind at various intervals after application. Ratings were based on Percent (%) Visual growth suppression (reduction) from untreated grass, where […] or growth inhibition compared to the untreated grass growth. Quantitative measurements were also taken at various intervals after application, and measured in cm or inches height of leaf blade top height from the ground.
# [2] = system: meadow Bromegrass (BROCO, Bromus commutatus); experiment: Field trial: height of meadow Bromegrass after pyroxsulam application; details: for Height (cm): mean of 3 replicates
# Experimental: as §1, §2
# [3] = system: All grass species combined (CRFescue, Brome Grass, Quackgrass); experiment: Field trial: biomass reduction of pyroxsulam-treated vs untreated grass; details: 30 DAA
# Experimental: Trials were conducted under field conditions in Canada. Trial sites were located in perennial forage grass areas. Forage grasses tested included: Bromegrass, Timothy Fescue and Wheatgrass species, including: meadow Bromegrass (BROCO, Bromus commutatus), smooth Brome grass (BROIN, Bromus inermus), Timothy (PHLPR, Phleum pretense), creeping red Fescue (FESRU, Festuca rubra), Tall Fescue (FESAR, Festuca arundinacea), and Western Wheatgrass (AGRSM, Agropyron smithii). The grasses were grown using normal cultural practices for fertilization, seeding, and maintenance to ensure good growth of the grasses. The trials were conducted using normal research methodology. Trial plots were between 2 to 5 meters (m) wide by 5 to 20 m long. All treatments were applied using a randomized complete block trial design with 3 or 4 replications per treatment. The trial sites had populations of homogeneous or heterogeneous perennial forage grass species present. […]
# The treated plots and control plots were rated blind at various intervals after application. […] Quantitative measurements were also taken at various intervals after application, and measured in cm or inches height of leaf blade top height from the ground.
# [4] = 15 g ai/ha, 0 days after application
# [5] = 15 g ai/ha, 7 days after application
# [6] = 15 g ai/ha, 14 days after application
# [7] = 15 g ai/ha, 21 days after application
# [8] = 15 g ai/ha, 30 days after application
# [9] = 15 g ai/ha, 37 days after application
# [10] = 15 g ai/ha, 42 days after application
# [11] = 15 g ai/ha, 50 days after application
# [12] = 15 g ai/ha, 56 days after application
# [13] = 15 g ai/ha, 65 days after application
# [14] = 15 g ai/ha, 72 days after application
# [15] = 30 g ai/ha, 0 days after application
# [16] = 30 g ai/ha, 7 days after application
# [17] = 30 g ai/ha, 14 days after application
# [18] = 30 g ai/ha, 21 days after application
# [19] = 30 g ai/ha, 30 days after application
# [20] = 30 g ai/ha, 37 days after application
# [21] = 30 g ai/ha, 42 days after application
# [22] = 30 g ai/ha, 50 days after application
# [23] = 30 g ai/ha, 56 days after application
# [24] = 30 g ai/ha, 65 days after application
# [25] = 30 g ai/ha, 72 days after application
smiles,measurement,setting,value
"COc1cc(OC)n2nc(NS(=O)(=O)c3c(C(F)(F)F)ccnc3OC)nc2n1 [Pyroxsulam, N-(5,7-dimethoxy[1,2,4]-triazolo[1,5-α]pyrimidin-2-yl)-2-methoxy-4-(trifluoromethyl)-3-pyridinesulfonamide]",% Growth Inhibition,"[1]; 15 g ai/ha, week 1",0%
same,% Growth Inhibition,"[1]; 15 g ai/ha, week 2",7%
same,% Growth Inhibition,"[1]; 15 g ai/ha, week 3",35%
same,% Growth Inhibition,"[1]; 15 g ai/ha, week 4",30%
same,% Growth Inhibition,"[1]; 15 g ai/ha, week 5",23%
same,% Growth Inhibition,"[1]; 15 g ai/ha, week 6",21%
same,% Growth Inhibition,"[1]; 15 g ai/ha, week 7",15%
same,% Growth Inhibition,"[1]; 15 g ai/ha, week 8",4%
same,% Growth Inhibition,"[1]; 15 g ai/ha, week 9",8%
same,% Growth Inhibition,"[1]; 15 g ai/ha, week 10",12%
same,% Growth Inhibition,"[1]; 30 g ai/ha, week 1",0%
same,% Growth Inhibition,"[1]; 30 g ai/ha, week 2",14%
same,% Growth Inhibition,"[1]; 30 g ai/ha, week 3",35%
same,% Growth Inhibition,"[1]; 30 g ai/ha, week 4",32%
same,% Growth Inhibition,"[1]; 30 g ai/ha, week 5",32%
same,% Growth Inhibition,"[1]; 30 g ai/ha, week 6",21%
same,% Growth Inhibition,"[1]; 30 g ai/ha, week 7",19%
same,% Growth Inhibition,"[1]; 30 g ai/ha, week 8",12%
same,% Growth Inhibition,"[1]; 30 g ai/ha, week 9",4%
same,% Growth Inhibition,"[1]; 30 g ai/ha, week 10",12%
same,Height (% of Untreated),[2]; [4],100.0%
same,Height (cm),[2]; [4],20 cm
same,Height (% of Untreated),[2]; [5],57.1%
same,Height (cm),[2]; [5],20 cm
same,Height (% of Untreated),[2]; [6],50.0%
same,Height (cm),[2]; [6],25 cm
same,Height (% of Untreated),[2]; [7],47.6%
same,Height (cm),[2]; [7],30 cm
same,Height (% of Untreated),[2]; [8],45.0%
same,Height (cm),[2]; [8],27 cm
same,Height (% of Untreated),[2]; [9],43.1%
same,Height (cm),[2]; [9],28 cm
same,Height (% of Untreated),[2]; [10],45.2%
same,Height (cm),[2]; [10],33 cm
same,Height (% of Untreated),[2]; [11],53.8%
same,Height (cm),[2]; [11],42 cm
same,Height (% of Untreated),[2]; [12],52.4%
same,Height (cm),[2]; [12],43 cm
same,Height (% of Untreated),[2]; [13],58.5%
same,Height (cm),[2]; [13],48 cm
same,Height (% of Untreated),[2]; [14],76.8%
same,Height (cm),[2]; [14],63 cm
same,Height (% of Untreated),[2]; [15],100.0%
same,Height (cm),[2]; [15],20 cm
same,Height (% of Untreated),[2]; [16],57.1%
same,Height (cm),[2]; [16],20 cm
same,Height (% of Untreated),[2]; [17],50.0%
same,Height (cm),[2]; [17],25 cm
same,Height (% of Untreated),[2]; [18],44.4%
same,Height (cm),[2]; [18],28 cm
same,Height (% of Untreated),[2]; [19],41.7%
same,Height (cm),[2]; [19],25 cm
same,Height (% of Untreated),[2]; [20],38.5%
same,Height (cm),[2]; [20],25 cm
same,Height (% of Untreated),[2]; [21],45.2%
same,Height (cm),[2]; [21],33 cm
same,Height (% of Untreated),[2]; [22],51.3%
same,Height (cm),[2]; [22],40 cm
same,Height (% of Untreated),[2]; [23],51.2%
same,Height (cm),[2]; [23],42 cm
same,Height (% of Untreated),[2]; [24],52.4%
same,Height (cm),[2]; [24],43 cm
same,Height (% of Untreated),[2]; [25],57.3%
same,Height (cm),[2]; [25],47 cm
same,Biomass reduction (%),[3]; 15 g/ha,40%
same,Biomass reduction (%),[3]; 30 g/ha,38%
